Laboratory results taken from patent publication US20210292710A1, “METHOD FOR ENHANCING IMMUNE FUNCTION OF IMMUNE CELL AND IMMUNE CELL LINE PRODUCED USING THE SAME” (INDUSTRY-ACADEMIC COOPERATION FOUNDATION, YONSEI UNIVERSITY, priority 2020, published 2021).

Tested on: GLUT1
Assay: GLUT1 expression in T cell based on type of PI3K inhibitor
Description: More specifically, referring to (a) of FIG. 12, the results of GLUT1 expression according to the type of PI3K inhibitor in the helper T cell are shown. In this connection, the PI3K inhibitor may include BKM 120 that may inhibit all subtypes, CAL-101 that may inhibit only p110δ, IPI-145 capable of inhibiting p110γ and P110δ, BYLT719 capable of inhibiting only p110α, and TGX-211 capable of inhibiting only p110β.
Referring to (b) of FIG. 12, the results of GLUT1 expression according to the type of PI3K inhibitor in cytotoxic T cells are shown.

Question: What does the source list for CC[C@H](Nc1ncnc2[nH]cnc12)c1nc2cccc(F)c2c(=O)n1-c1ccccc1 [CAL-101, idelalisib]?
Answer: GLUT1 expression level versus BYLT719 and TGX-211 inhibitors (cytotoxic T cells): higher GLUT1 expression levels; GLUT1 expression level versus BYLT719 and TGX-211 inhibitors (helper T cell): higher GLUT1 expression levels
